Measured values published in ChEMBL document CHEMBL1201862, “PubChem BioAssay data set” (2004).
Active and inactive are the calls of the source.

Experiments:
[1] = Counterscreen for […] of the human trace amine associated receptor 1 (TAAR1): Fluorescence-based cell-based high throughput dose response assay to identify nonselective Ga16 agonists.; assay type: functional
[2] = target: T1, Trace amine-associated receptor 1 (Homo sapiens, UniProt Q96RJ0); test: Fluorescence-based cell-based high throughput dose response assay to identify antagonists of the human trace amine associated receptor 1 (TAAR1).; assay type: functional
T1 sequence (Q96RJ0 whole entry): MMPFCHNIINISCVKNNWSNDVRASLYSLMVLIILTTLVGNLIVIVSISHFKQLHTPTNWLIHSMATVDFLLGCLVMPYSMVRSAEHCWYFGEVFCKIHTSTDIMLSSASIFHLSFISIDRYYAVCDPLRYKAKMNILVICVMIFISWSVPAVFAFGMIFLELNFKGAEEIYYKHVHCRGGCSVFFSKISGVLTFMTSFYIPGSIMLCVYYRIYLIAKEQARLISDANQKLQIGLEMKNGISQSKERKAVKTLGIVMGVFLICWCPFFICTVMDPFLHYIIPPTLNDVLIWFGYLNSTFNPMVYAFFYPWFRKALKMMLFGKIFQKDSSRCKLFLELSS

[3] = Counterscreen for antagonists of the human trace amine associated receptor 1 (hTAAR1): Fluorescence-based cell-based high throughput dose response assay to identify nonselective Ga16 antagonists.; assay type: functional
[4] = target: T1, Trace amine-associated receptor 1; test: Counterscreen for antagonists of the human trace amine associated receptor 1 (hTAAR1): Fluorescence-based cell-based high throughput dose response assay to identify TAAR1 Agonists.; assay type: functional
[5] = target: Photoreceptor-specific nuclear receptor (Homo sapiens, UniProt Q9Y5X4); assay type: functional, cell-based;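 note: CHO-S cells with Gal4-NCOR and VP16-NR2E3 two-hybrid luciferase reporter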
[6] = HEK293 cell cytotoxicity, dose response, cytotoxicity control, cherry-picks, set 5 (AID 1053117); assay type: functional, cell-based
[7] = A549 cell cytotoxicity, dose response, cytotoxicity control, cherry-picks, 26 µM top dose (AID 1053119); assay type: functional, cell-based
[8] = inhibitors of fibronectin matrix deposition, dose response, AH1F cells, Alexa488-FN fluorescence, cherry-picks (AID 1035475); assay type: functional, cell-based
[9] = HEK293 cell cytotoxicity, dose response, cytotoxicity control, ATP luminescence, dry powder, Set6 (AID 743142); assay type: functional, cell-based
[10] = A549 cell cytotoxicity, dose response, cytotoxicity control, CellTiter-Glo luminescence, dry powder, set 3 (AID 743146); assay type: functional, cell-based
[11] = target: Muscarinic acetylcholine receptor M5 (Homo sapiens, UniProt P08912); test: M5 muscarinic receptor antagonist potency, dose response, cell-based, CHO-K1 hM5, Fluo-4 calcium flux, ACh EC80 (AID 743110); assay type: functional
[12] = target: Kallikrein-7 (Homo sapiens, UniProt P49862); test: Fluorescence Intensity-based biochemical primary high throughput dose response assay to identify activators of kallikrein-7 (K7) zymogen.
[13] = target: Major prion protein (Homo sapiens, UniProt P04156); assay type: functional, cell-based
[14] = cells
[15] = TRPM1 promoter luciferase reporter signal decrease, dose response, MITF inhibitor project, cell-based, SK-MEL-5, dry powder, set 9 (AID 651588); assay type: functional
[16] = A375 melanoma cell viability loss, dose response, counter-screen for MITF inhibitor project, CellTiter-Glo luminescence, dry powder, set 4 (AID 624364); assay type: functional, cell-based; settings: A-375;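 note: A375 melanoma cells are MITF independent so this is a counter screen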
[17] = A375 melanoma cell cytotoxicity, dose response, counter-screen for MITF inhibitor project, CellTiter-Glo luminescence, dry powder, set 7 (AID 624490); assay type: functional, cell-based; settings: A-375
[18] = MITF Orthogonal Assay: MALME3 CTG Assay Measured in Cell-Based System Using Plate Reader - 2084-04_Inhibitor_Dose_DryPowder_Activity_Set6.; assay type: functional; settings: MALME-3
[19] = SK-MEL-5 parental cell viability reduction, dose response, orthogonal assay for MITF inhibitor project, CellTiter-Glo luminescence, dry powder, set 8 (AID 651586); assay type: functional, cell-based
[20] = MALME3 melanoma cell viability reduction, dose response, orthogonal assay for MITF inhibitor project, CellTiter-Glo luminescence, dry powder, set 5 (AID 651584); assay type: functional, cell-based; settings: MALME-3
[21] = SK-MEL-5 parental line viability, dose response, MITF inhibitor project, cell-based, CellTiter-Glo, dry powder, set 6 (AID 624429); assay type: functional
[22] = MITF Orthogonal Assay: SK-MEL-5 CTG Assay Measured in Cell-Based System Using Plate Reader - 2084-02_Inhibitor_Dose_DryPowder_Activity_Set5.; assay type: functional
[23] = MITF Measured in Cell-Based System Using Plate Reader - 2084-01_Inhibitor_Dose_DryPowder_Activity_Set6.; assay type: functional
[24] = MITF Measured in Cell-Based System Using Plate Reader - 2084-01_Inhibitor_Dose_DryPowder_Activity_Set7.; assay type: functional
[25] = cytotoxicity in primary human melanocytes, dose response, cytotoxicity control, cell-based, plate reader, dry powder (AID 651920); assay type: functional
[26] = target: Paired box protein Pax-8 (Homo sapiens, UniProt Q06710); test: inhibitors of PAX8-driven TPO luciferase reporter, dose response, RMG-I cells, cherry-pick (AID 687027); assay type: functional, cell-based;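 note: luciferase reporter driven by Pax8 target thyroperoxidase promoter measured by SteadyGlo luminescence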
[27] = IOSE-T80 ovarian epithelial cell cytotoxicity, dose response, cytotoxicity control for PAX8 inhibitor project, plate reader, dry powder samples (AID 743045); assay type: functional, cell-based
[28] = inhibitors of CMV-promoter luciferase reporter, dose response, counter-screen for Pax8 inhibitor project, cell-based, HEK293, luminescence, dry powder (AID 743020); assay type: functional
[29] = NIH:OVCAR-3 ovarian cancer cell cytotoxicity, dose response, PAX8 inhibitor project, plate reader, dry powder samples (AID 743044); assay type: functional, cell-based
[30] = cytotoxicity in OVCAR8 ovarian cancer cells, dose response, PAX8 project, cell-based, plate reader, dry powder samples (AID 743197); assay type: functional; settings: OVCAR-8

In the case of `CCCC(=O)Nc1ccc(-c2csc(N/N=C\c3ccncc3)n2)cc1`, the EC50 [1] is reported as > 29.9 µM (inactive), the IC50 [2] is reported as 9.3 µM (active) and the IC50 [3] is reported as > 29.9 µM (inactive). The EC50 [4] was > 29.9 µM (inactive).
In the case of `CN1CCN(C(=O)c2cccc(-c3cnc4cnc(-c5ccccc5Oc5ccccc5)cn34)c2)CC1`, the IC50 [5] is reported as 1.72 µM (active), the AC50 [6] is reported as 47.8 µM (active) and the AC50 [7] is reported as > 52 µM (inactive). The AC50 [8] was 5.86 µM (active).
With `Cc1ccc(C(=O)NCCC(=O)N[C@@H]2CCCc3ccccc32)cc1` the AC50 [9] was 6.22 µM (active) and the AC50 [10] was > 52 µM (inactive).
For `COC(=O)c1cccc(OCc2cc(C(=O)N(C)C(C)c3ccccn3)no2)c1` (stereo not given), the IC50 [11] was 11.1 µM (active).
In the case of `CN1CCSc2ccc(C(=O)NCc3cccc(F)c3)cc21`, the EC50 [12] is reported as > 69.5 µM (inactive).
With `O=C(O)CSc1ncnc2scc(-c3ccccc3)c12` the IC50 [13] was 5.04 µM (active) and the IC50 [14] was > 138 µM (inactive).
In the case of `O=C1C=C(NS(=O)(=O)c2ccc(Br)cc2)C(=O)c2ccccc21`, the AC50 [15] is reported as 18.8 µM (active), the AC50 [16] is reported as > 70 µM (inactive) and the AC50 [17] is reported as > 70 µM (inactive). For the same molecule, the AC50 [18] was 24.4 µM (active), the AC50 [19] was 11.8 µM (active) and the AC50 [20] was 24.4 µM (active). For the same molecule, the AC50 [21] was 11.2 µM (active), the AC50 [22] was 13.1 µM (active) and the AC50 [23] was 6.37 µM (active). For the same molecule, the AC50 [24] was 7.45 µM (active) and the AC50 [25] was 14.5 µM (active).
With `O=C(Nc1ccc(F)cc1)N1CC(=O)N2[C@@H](CO)[C@H](c3ccc(-c4ccc(F)cc4)cc3)[C@@H]2C1` the AC50 [26] was 6.32 µM (active), the AC50 [27] was 36.7 µM (active) and the AC50 [28] was 34.5 µM (active). For the same molecule, the AC50 [29] was 18.1 µM (active) and the AC50 [30] was 25.6 µM (active).
